Measured values published in patent US11001588B2, “Activating pyruvate kinase R and mutants thereof” (FORMA Therapeutics, Inc., priority 2018, dated 2021).

What was measured:
PKR(R510Q) = PKR(R510Q) (Homo sapiens, UniProt P30613, R510Q); assay: Luminescence Biochemical Assay (Kinase Glo Plus), PKR R510Q; details: without FBP; for AC50: read-out: D—AC50 LUM KGP woFBP AC50 μM gmean
Protocol: (§1) In some embodiments, a PKR Activating Compound refers to a compound having one or more characteristics when tested according to the following Luminescence Assay Protocol of Example 3 performed with wild type (wt) PKR and/or any one or more of G332S mutant form of PKR or R510Q mutant form of PKR: (1) an AC50 value of less than 40 μM (e.g., compounds with AC50 values of “+”, “++”, or “+++” in Table 2); (2) a maximum % Fold (MAX % Fold) value of greater than 75%; and/or (3) a % Fold value at 1.54 μM compound concentration (% Fold@1.54 μM) of at least 75%. In some embodiments, a PKR Activating Compound can have: (1) an AC50 value of less than 0.1 μM (e.g., compounds with AC50 values of “+++” in Table 2), 0.1-1.0 μM (e.g., compounds with AC50 values of “++” in Table 2), or 1.01-40 μM (e.g., compounds with AC50 values of “+” in Table 2); (2) a MAX % Fold of 75%-250%, 250-500%, or 75%-500%; and/or (3) a % Fold@1.54 μM of 75%-250%, 250-500%, or 75%-500%. In some embodiments, a PKR Activating Compound has (1) an AC50 value of less than 1.0 μM; (2) a MAX % Fold of 75%-500%; and/or (3) a % Fold@1.54 μM of 75%-500%.
(§2) The phosphorylation of Adenosine-5′-diphosphate (ADP) by various mutants of PKR was determined by the Kinase Glo Plus Assay (Promega) in the presence or absence of FBP [D-Fructose-1,6-diphosphate; BOC Sciences, CAS: 81028-91-3] as follows. Unless otherwise indicated, all reagents were purchased from Sigma-Aldrich. All reagents were prepared in buffer containing 50 mM Tris-HCl, 100 mM KCl, 5 mM MgCl2, and 0.01% Triton X100, 0.03% BSA, and 1 mM DTT. Enzyme and PEP [Phospho(enol) pyruvic acid] were added at 2× to all wells of an assay-ready plate containing serial dilutions of test compounds or DMSO vehicle. Final enzyme concentrations for PKR(wt), PKR(R510Q), and PKR(G332S) were 0.8 nM, 0.8 nM, and 10 nM respectively. Final PEP concentration was 100 μM. The Enzyme/PEP mixture was incubated with compounds for 30 minutes at RT before the assay was initiated with the addition of 2×ADP [Adenosine-5′-diphosphate] and KinaseGloPlus. Final concentration of ADP was 100 μM. […] For assays containing FBP, that reagent is added at 30 μM upon reaction initiation. Reactions were allowed to progress for 45 minutes at RT until luminescence was recorded by the BMG PHERAstar FS Multilabel Reader. All compounds were tested in triplicate at concentrations ranging from 42.5 μM to 2.2 nM in 0.83% DMSO.
Luminescence values were converted to % Fold increase by normalizing to the average of the DMSO control and multiplying by 100. Max, min, slope and AC50 were determined by the standard four parameter fit algorithm of ActivityBase XE Runner. Compounds were evaluated with three parameters—AC50, MAX % Fold, and % Fold@1.54 μM (FIG. 1). The AC50 value for a compound is the concentration (μM) corresponding to the midway between the maximum and minimum values of the four parameter logistic curve fit (i.e., at which the % fold increase along the four parameter logistic curve fit is halfway between MAX % Fold and MIN % Fold (% Fold Midpoint)), MAX % Fold is the highest fold increase observed at any concentration of compound, and % Fold@1.54 μM is the fold increase at a compound concentration of 1.54 μM. The parameter % Fold@1.54 μM was selected to capture elements of both the AC50 and MAX % Fold and to provide a ranking based on both potency and effect. […]

PKR(G332S) = PKR(G332S) (Homo sapiens, UniProt P30613, G332S); assay: Luminescence Biochemical Assay (Kinase Glo Plus), PKR G332S; details: with FBP (30 μM); for AC50: read-out: A—AC50 LUM KGP FBP AC50 μM gmean
Sequence of PKR(G332S) (P30613 whole entry G332S): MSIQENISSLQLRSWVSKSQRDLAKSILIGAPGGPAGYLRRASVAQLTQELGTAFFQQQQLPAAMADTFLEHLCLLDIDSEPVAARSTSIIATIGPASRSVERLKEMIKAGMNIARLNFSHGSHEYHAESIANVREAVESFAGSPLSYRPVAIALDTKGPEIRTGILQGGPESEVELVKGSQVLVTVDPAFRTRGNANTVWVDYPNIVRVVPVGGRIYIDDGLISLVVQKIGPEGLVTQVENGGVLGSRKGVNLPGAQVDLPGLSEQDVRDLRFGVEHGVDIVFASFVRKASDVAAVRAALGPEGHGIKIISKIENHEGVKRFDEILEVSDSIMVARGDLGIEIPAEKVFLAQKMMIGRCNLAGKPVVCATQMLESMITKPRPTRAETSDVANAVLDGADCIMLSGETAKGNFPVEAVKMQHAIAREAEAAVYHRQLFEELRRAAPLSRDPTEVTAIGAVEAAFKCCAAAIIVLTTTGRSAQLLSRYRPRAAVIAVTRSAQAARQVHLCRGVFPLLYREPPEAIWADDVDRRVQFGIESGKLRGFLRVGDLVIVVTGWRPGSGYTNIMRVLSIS
Protocol: as §1, §2
Luminescence values were converted to % Fold increase by normalizing to the average of the DMSO control and multiplying by 100. Max, min, slope and AC50 were determined by the standard four parameter fit algorithm of ActivityBase XE Runner. Compounds were evaluated with three parameters—AC50, MAX % Fold, and % Fold@1.54 μM (FIG. 1). […]

PKR(wt) = PKR(wt) (Homo sapiens, UniProt P30613); assay: Luminescence Biochemical Assay (Kinase Glo Plus), wild type PKR; details: without FBP; for AC50: read-out: G—AC50 LUM KGP woFBP AC50 μM gmean
Sequence of PKR(wt) (P30613 whole entry): as the sequence (P30613 whole entry G332S) above, with S332G counted along it
Protocol: as §1, §2
Luminescence values were converted to % Fold increase by normalizing to the average of the DMSO control and multiplying by 100. Max, min, slope and AC50 were determined by the standard four parameter fit algorithm of ActivityBase XE Runner. Compounds were evaluated with three parameters—AC50, MAX % Fold, and % Fold@1.54 μM (FIG. 1). The AC50 value for a compound is the concentration (μM) corresponding to the midway between the maximum and minimum values of the four parameter logistic curve fit (i.e., at which the % fold increase along the four parameter logistic curve fit is halfway between MAX % Fold and MIN % Fold (% Fold Midpoint)), MAX % Fold is the highest fold increase observed at any concentration of compound, and % Fold@1.54 μM is the fold increase at a compound concentration of 1.54 μM. The parameter % Fold@1.54 μM was selected to capture elements of both the AC50 and MAX % Fold and to provide a ranking based on both potency and effect. The compound concentration of 1.54 μM was chosen as one that can optimally differentiate the set of compounds based on the range of activities observed.
As set forth in Table 2 below, AC50 values (columns A, D, G) are defined as follows: ≤0.1 μM (+++); >0.1 μM and ≤1.0 μM (++); >1.0 μM and ≤40 μM (+); >40 μM (0). Max % FOLD values (columns B, E, H) are defined as follows: ≤75% (+); >75% and ≤250% (++); >250% and ≤500% (+++). % Fold@1.54 μM values (columns C, F, J) are defined as follows: ≤75% (+); >75% and ≤250% (++); >250% and ≤500% (+++).

Sequence of PKR(R510Q) (P30613 whole entry R510Q): as the sequence (P30613 whole entry G332S) above, with S332G, R510Q counted along it

| Compound | AC50 (PKR(wt)) | AC50 (PKR(R510Q)) | further results |
| --- | --- | --- | --- |
| O=C([C@H](O)c1ccccc1)N1CC2=C(C1)CN(S(=O)(=O)c1ccccn1)C2 [Compound 1, (2R)-2-hydroxy-2-phenyl-1-[5-(pyridine-2-sulfonyl)-1H,2H,3H,4H, 5H,6H-pyrrolo[3,4-c]pyrrol-2-yl]ethan-1-one] | ≤ 0.1 µM | – | E—AC50 LUM KGP woFBP MAX % FOLD mean (PKR(R510Q)): +++ (>250% and ≤500% (+++)); F—AC50 LUM KGP woFBP % Fold@1.54 μM mean (PKR(R510Q); 1.54 μM compound): ++ (>75% and ≤250% (++)); B—AC50 LUM KGP FBP MAX % FOLD mean (PKR(G332S)): ++ (>75% and ≤250% (++)); C—AC50 LUM KGP FBP % Fold@1.54 μM mean (PKR(G332S); 1.54 μM compound): ++ (>75% and ≤250% (++)); H—AC50 LUM KGP woFBP MAX % FOLD mean (PKR(wt)): ++ (>75% and ≤250% (++)); J—AC50 LUM KGP woFBP % Fold@1.54 μM mean (PKR(wt); 1.54 μM compound): ++ (>75% and ≤250% (++)) |
| Cc1nc2ccc(S(=O)(=O)N3CC4=C(CN(C(=O)Cc5ccc(Cl)cc5)C4)C3)cc2s1 [Compound 24] | – | 1 to 40 µM | – |
| C[C@@H](C(=O)N1CC2=C(C1)CN(S(=O)(=O)c1c[nH]c3c(Cl)nccc13)C2)c1ccccc1 [Compound 25] | – | 1 to 40 µM | AC50 (PKR(G332S)): 1 to 40 µM |
| Cc1nn(C(C)C(=O)N2CC3=C(C2)CN(S(=O)(=O)c2ccc4occc4c2)C3)cc1Cl (centres unmarked) [Compound 27] | 1 to 40 µM | – | – |
| O=C(CC1CCS(=O)(=O)CC1)N1CC2=C(C1)CN(S(=O)(=O)c1ccc3occc3c1)C2 [Compound 28] | 1 to 40 µM | – | – |

Further lines, with some results ahead:

| AC50 (PKR(wt)) | AC50 (PKR(R510Q)) | Compound | further results |
| --- | --- | --- | --- |
| 1 to 40 µM | – | CN1CCOc2ccc(S(=O)(=O)N3CC4=C(CN(C(=O)CC5CCOCC5)C4)C3)cc21 [Compound 26] | – |
| 1 to 40 µM | – | CC(=O)N1CCOc2ccc(S(=O)(=O)N3CC4=C(CN(C(=O)C(C)c5ccc(F)cc5)C4)C3)cc21 (centres unmarked) [Compound 29] | – |
| 1 to 40 µM | 1 to 40 µM | CN1CCOc2ccc(S(=O)(=O)N3CC4=C(CN(C(=O)C5(c6cccc(F)c6)CC5)C4)C3)cc21 [Compound 30] | AC50 (PKR(G332S)): 1 to 40 µM |
